Assay results taken from US8222416B2, “Azaindole glucokinase activators” (Hoffmann-La Roche Inc., priority 2009, dated 2012).

Key:
C57BL/6J mice = assay: Glucokinase activator in vivo screen, blood glucose after oral gavage in lean and diet induced obese mice; details: Mus musculus, C57B6 mice, read-out: % gluc lowering @ 2 H; for change in vivo at 25 mg/kg: vs control at 2 hours post 25 mg/kg oral dose; for change in vivo at 50 mg/kg: vs control at 2 hours post 50 mg/kg oral dose
Experimental: Glucokinase Activator in vivo Screen Protocol in Lean and Diet Induced Obese Mice: Lean or Diet-Induced Obese (DIO) C57BL/6J mice were orally dosed via gavage with Glucokinase (GK) activator following a two hour fasting period. Blood glucose determinations were made at various (e.g. 0, 1, 2, 4 and 8 hours post-oral gavage) times during the study.
C57Bl/6J mice were obtained from Jackson Laboratory (Bar Harbor, Me.) and were maintained in a light-dark cycle with lights on from 0600-1800 hr. For studies in lean mice, the mice were received at age ten weeks and given ad libitum access to control diet (LabDiet 5001 chow, PMI Nutrition, Brentwood, Mo.), and were at least age 11 weeks at the time of study. For studies in the DIO model, the mice were received at age five weeks and given ad libitum access to Bio-Sery F3282 High Fat Diet (Frenchtown, N.J.), and were at least age 16 weeks at the time of study. The experiments were conducted during the light phase of the light-dark cycle. Mice (n=6) are weighed and fasted for a two hour period prior to oral treatment. GK activators are formulated in Gelucire vehicle (Ethanol:Gelucire44/14:PEG400q.s. 4:66:30 v/w/v. For studies in lean mice, the mice were dosed orally with 5.04 per gram of body weight (i.e. 5 ml/kg×10.0 mg/ml formulation to equal a 50 mg/kg dose). For studies in DIO mice, the mice were dosed orally with 5.04 per gram of body weight (i.e. 5.0 ml/kg×5 mg/ml formulation to equal a 25 mg/kg dose). Immediately prior to dosing, a pre-dose (time zero) blood glucose reading was acquired by snipping off a small portion of the animal's tail and collecting […] blood into a heparinized capillary tube for analysis. Following GK activator administration, additional blood glucose readings were taken at various time points post dose from the same tail wound. Results were interpreted by comparing the mean blood glucose values of vehicle treated mice with GK activator treated mice over the study period.
The Table below provides data for % glucose lowering of a representative number of compounds of the present invention vs control at 2 hours post 25 or 50 mg/kg dose in C57B6 mice: […]

[1] = biological target: T1, Recombinant human liver GK1 (GST-GK) (Homo sapiens, UniProt P35557); assay: In vitro glucokinase activity assay (G6PDH-coupled, NADH, OD340); assay type: biochemical; details: for SC1.5: concentration of activator that produced a 50% increase in the activity of GK, 5 mM D-glucose, 30° C.
T1 construct: made in house; host or cells: E. coli
T1 sequence (P35557 1-466 isoform P35557-2): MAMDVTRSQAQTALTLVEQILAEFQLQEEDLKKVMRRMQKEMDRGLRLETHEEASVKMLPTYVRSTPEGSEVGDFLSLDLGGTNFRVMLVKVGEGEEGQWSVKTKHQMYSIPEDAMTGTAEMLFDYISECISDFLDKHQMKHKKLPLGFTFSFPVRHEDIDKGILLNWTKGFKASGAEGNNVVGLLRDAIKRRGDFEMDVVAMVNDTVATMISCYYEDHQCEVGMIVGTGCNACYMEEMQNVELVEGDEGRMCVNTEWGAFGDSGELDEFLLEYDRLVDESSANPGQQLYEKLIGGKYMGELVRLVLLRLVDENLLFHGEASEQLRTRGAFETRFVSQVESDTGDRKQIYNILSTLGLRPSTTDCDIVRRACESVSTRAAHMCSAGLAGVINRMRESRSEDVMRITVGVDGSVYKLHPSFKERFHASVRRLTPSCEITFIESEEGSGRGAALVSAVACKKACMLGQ
Outline: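 GST-fused human liver GK1 from E. coli, run at 30° C. in pH 7.1 HEPES with 5 mM glucose, 1 mM ATP and 10% DMSO, coupled via G6PDH to NADH. OD340 rate measured after enzyme start; SC1.5 is the activator concentration raising activity 50% over DMSO control.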

| SMILES | change in vivo at 25 mg/kg (C57BL/6J mice) [%] | SC1.5 [1] [µM] | change in vivo at 50 mg/kg (C57BL/6J mice) [%] | fold activation of GK ([1]; at 30 μM) [fold at 30] |
| --- | --- | --- | --- | --- |
| COCCOc1cnc2[nH]c([C@H](CC3CCCC3)c3ccc(S(C)(=O)=O)cc3)cc2c1 (single isomer, unassigned) [Example 16] | -31.3 | 0.21 | – | – |
| CC(C)Oc1cnc2[nH]c([C@H](CC3CCCC3)c3ccc(S(C)(=O)=O)cc3)cc2c1 (single isomer, unassigned) [Example 19] | -14.8 | 0.414 | – | – |
| COc1cnc2[nH]c(C(CC3CCCO3)c3ccc(S(C)(=O)=O)cc3)cc2c1 (single isomer, unassigned) [Example 22, 2-[1-(4-Methanesulfonyl-phenyl)-2-(tetrahydro-furan-2-yl)-ethyl]-5-methoxy-1H-pyrrolo[2,3-b]pyridine] | -6.3 | 2.5 | – | – |
| COc1cnc2[nH]c([C@H](CC3CCOCC3)c3ccc(S(C)(=O)=O)cc3)cc2c1 (single isomer, unassigned) [Example 32] | -23.4 | 1.1 | – | – |
| COc1cnc2[nH]c([C@H](CC3CCOCC3)c3ccc(C(F)(F)F)cc3)cc2c1 (single isomer, unassigned) [Example 34] | -10.7 | 0.958 | – | – |
| COCc1cnc2[nH]c([C@H](CC3CCCC3)c3ccc(S(C)(=O)=O)cc3)cc2c1 (single isomer, unassigned) [Example 42] | -10.3 | 0.903 | – | – |
| CS(=O)(=O)c1ccc(C(CC2CCCCO2)c2cc3cccnc3[nH]2)cc1 (single isomer, unassigned) [Example 60, 2-[1-(4-Methanesulfonyl-phenyl)-2-(tetrahydro-pyran-2-yl)-ethyl-]-1H-pyrrolo[2,3-b]pyridine] | -29.9 | 0.451 | – | – |
| CS(=O)(=O)c1ccc([C@@H](CC2CCOCC2)c2cc3cccnc3[nH]2)cc1 (single isomer, unassigned) [Example 67] | -43.6 | 0.505 | – | – |
| CC(C)(O)c1ccc([C@@H](CC2CCCC2)c2cc3cccnc3[nH]2)cc1 (single isomer, unassigned) [Example 82] | -42.7 | 0.647 | – | – |
| CS(=O)(=O)c1ccc([C@@H](CC2CCCC2)c2cc3cc(F)cnc3[nH]2)cc1 (single isomer, unassigned) [Example 118] | -48.4 | 0.05 | – | – |
| CC(C)(O)c1ccc([C@@H](CC2CCCC2)c2cc3cc(F)cnc3[nH]2)cc1 (single isomer, unassigned) [Example 120] | -52 | 0.241 | – | – |
| CS(=O)(=O)c1ccc([C@@H](CC2CCOCC2)c2cc3cc(F)cnc3[nH]2)cc1 (single isomer, unassigned) [Example 124] | -35 | 0.21 | – | – |
| CC(C)NC(=O)c1cnc2[nH]c(C(CC3CCCC3)c3ccc(S(C)(=O)=O)cc3)cc2c1 (centres unmarked) [Example 3, 2-[2-Cyclopentyl-1-(4-methanesulfonyl-phenyl)-ethyl]-1H-pyrrolo[2,3-b]pyridin-5-carboxylic acid isopropylamide] | – | 1.9 | -5.6 | – |
| CC(C)S(=O)(=O)c1ccc(C(CC2CCCC2)c2cc3cccnc3[nH]2)cc1 (centres unmarked) [Example 69] | – | 0.387 | -40.3 | – |
| CC(C)(O)c1ccc(C(CC2CCCC2)c2cc3cccnc3[nH]2)cc1F (centres unmarked) [Example 95, 2-{4-[2-Cyclopentyl-1-(1H-pyrrolo[2,3-b]pyridin-2-yl)-ethyl]-2-fluoro-phenyl}-propan-2-ol] | – | 0.379 | -49.4 | – |
| CS(=O)(=O)c1ccc(C(CC2CCCC2)c2cc3cccnc3[nH]2)cn1 (centres unmarked) [Example 109, 2-[2-Cyclopentyl-1-(6-methanesulfonyl-pyridin-3-yl)-ethyl]-1H-pyrrolo[2,3-b]pyridine] | – | 2.1 | -31.6 | – |

| SMILES | change in vivo at 25 mg/kg (C57BL/6J mice) [%] | SC1.5 [1] [µM] | change in vivo at 50 mg/kg (C57BL/6J mice) [%] | fold activation of GK ([1]; at 30 μM) [fold at 30] |
| --- | --- | --- | --- | --- |
| CS(=O)(=O)c1ccc(C(CC2CCCC2)c2cc3cc(F)cnc3[nH]2)cc1 (centres unmarked) [Example 117, 2-[2-Cyclopentyl-1-(4-methanesulfonyl-phenyl)-ethyl]-5-fluoro-1H-pyrrolo[2,3-b]pyridine] | – | 0.071 | – | – |
| CC(C)(O)c1ccc(C(CC2CCCC2)c2cc3cc(F)cnc3[nH]2)cc1 (centres unmarked) [Example 119, 2-{4-[2-Cyclopentyl-1-(5-fluoro-1H-pyrrolo[2,3-b]pyridin-2-yl)-ethyl]-phenyl}-propan-2-ol] | – | 0.78 | – | – |
| CC(C)c1ccc(C(CC2CCCC2)c2cc3cc(F)cnc3[nH]2)cc1 (centres unmarked) [Example 121, 2-[2-Cyclopentyl-1-(4-isopropyl-phenyl)-ethyl]-5-fluoro-1H-pyrrolo[2,3-b]pyridine] | – | 0.458 | – | – |
| CS(=O)(=O)c1ccc(C(CC2CCOCC2)c2cc3cc(F)cnc3[nH]2)cc1 (centres unmarked) [Example 123, 5-Fluoro-2-[1-(4-methanesulfonyl-phenyl)-2-(tetrahydro-pyran-4-yl)-ethyl]-1H-pyrrolo[2,3-b]pyridine] | – | 0.47 | – | – |
| CCS(=O)(=O)c1cnc2[nH]c(C(CC3CCCC3)c3ccc(S(C)(=O)=O)cc3)cc2c1 (centres unmarked) [Example 125, 2-[2-Cyclopentyl-1-(4-methanesulfonyl-phenyl)-ethyl]-5-ethanesulfonyl-1H-pyrrolo[2,3-b]pyridine] | – | – | – | 1.4 |
| CS(=O)(=O)c1ccc(C(CC2CCCC2)c2cc3cc(C(F)(F)F)cnc3[nH]2)cc1 (centres unmarked) [Example 126, 2-[2-Cyclopentyl-1-(4-methanesulfonyl-phenyl)-ethyl]-5-trifluoromethyl-1H-pyrrolo[2,3-b]pyridine] | – | 2.0 | – | – |
| Cc1cnc2[nH]c(C(CC3CCCC3)c3ccc(S(C)(=O)=O)cc3)cc2c1 (centres unmarked) [Example 128, 2-[2-Cyclopentyl-1-(4-methanesulfonyl-phenyl)-ethyl]-5-methyl-1H-pyrrolo[2,3-b]pyridine] | – | 0.85 | – | – |
| Cc1cccc(C(CC(C)C)c2cc3cccnc3[nH]2)c1 (centres unmarked) [Example 130, 2-(3-Methyl-1-m-tolyl-butyl)-1H-pyrrolo[2,3-b]pyridine] | – | 7.8 | – | – |
| CC(C)CC(c1cccc(Cl)c1)c1cc2cccnc2[nH]1 (centres unmarked) [Example 131, 2-(1-(3-Chloro-phenyl)-3-methyl-butyl)-1H-pyrrolo[2,3-b]pyridine] | – | 9.9 | – | – |
| CC(C)CC(c1cccc(F)c1)c1cc2cccnc2[nH]1 (centres unmarked) [Example 132, 2-(1-(3-Fluoro-phenyl)-3-methyl-butyl)-1H-pyrrolo[2,3-b]pyridine] | – | 10.9 | – | – |
| CCOc1cccc(C(CC(C)C)c2cc3cccnc3[nH]2)c1 (centres unmarked) [Example 133, 2-(1-(3-Ethoxy-phenyl)-3-methyl-butyl)-1H-pyrrolo[2,3-b]pyridine] | – | 25.0 | – | – |
| COc1cccc(C(CC(C)C)c2cc3cccnc3[nH]2)c1 (centres unmarked) [Example 134, 2-(1-(3-Methoxy-phenyl)-3-methyl-butyl)-1H-pyrrolo[2,3-b]pyridine] | – | 12.9 | – | – |
| CC(=O)c1cccc(C(CC(C)C)c2cc3cccnc3[nH]2)c1 (centres unmarked) [Example 135, 1-{3-[3-Methyl-1-(1H-pyrrolo[2,3-b]pyridin-2-yl)-butyl]-phenyl}-ethanone] | – | 9.6 | – | – |
| CC(C)CC(c1cccc(N(C)C)c1)c1cc2cccnc2[nH]1 (centres unmarked) [Example 136, N,N-Dimethyl-3-(3-methyl-1-(1H-pyrrolo[2,3-b]pyridine-2-yl)butyl)benzenamine] | – | 14.3 | – | – |
| CC(C)CC(c1cccc(-n2cccn2)c1)c1cc2cccnc2[nH]1 (centres unmarked) [Example 137, 2-(1-(3-(1H-Pyrazol-1-yl)phenyl)-3-methylbutyl)-1H-pyrrolo[2,3-b]pyridine] | – | 15.2 | – | – |
